The structures appear in SMILES notation. Counter-ions that a name gives are not always drawn.

One assay addresses T1, Human recombinant PTP1B (Homo sapiens, UniProt P18031).
T1 construct: made in house
T1 sequence (P18031 1-435): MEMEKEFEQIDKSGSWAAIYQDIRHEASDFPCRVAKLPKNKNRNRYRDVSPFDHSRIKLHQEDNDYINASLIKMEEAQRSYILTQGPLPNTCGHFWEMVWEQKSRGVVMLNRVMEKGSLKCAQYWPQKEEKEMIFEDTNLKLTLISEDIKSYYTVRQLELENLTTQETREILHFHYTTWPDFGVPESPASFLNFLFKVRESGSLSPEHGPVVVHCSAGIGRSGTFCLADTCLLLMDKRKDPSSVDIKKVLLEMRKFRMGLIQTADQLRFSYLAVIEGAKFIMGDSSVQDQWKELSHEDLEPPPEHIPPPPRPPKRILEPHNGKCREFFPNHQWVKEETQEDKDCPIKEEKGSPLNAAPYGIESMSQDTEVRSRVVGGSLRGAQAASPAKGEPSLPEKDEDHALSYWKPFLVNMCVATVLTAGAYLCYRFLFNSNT
In words: Inhibition of tri-phosphorylated insulin receptor dodecaphosphopeptide dephosphorylation by hPTP1B (malachite green). It is filed as biochemical.
Settings: not given
As to `O=C(c1ccccc1)c1oc2ccccc2c1-c1ccc(-c2ccc(O[C@H](Cc3ccccc3)C(=O)O)c([N+](=O)[O-])c2)cc1` [Example 66, (2R)-2-[4'-(2-Benzoyl-benzofuarn-3-yl)-3-nitro-biphenyl-4-yloxy]-3-phenyl-propionic acid], the IC50 amounted to 788 nM.

The same assay, now with this note: compound at 1 uM.
Consider `O=C(O)[C@@H](Cc1ccccc1)Oc1ccc(-c2ccc(-c3nc4cccnc4n3Cc3ccccc3)cc2)cc1` [Example 69, (2R)-2-[4'-(3-Benzyl-3H-imidazol[4,5-b]pyridin-2-yl)-biphenyl-4-yloxy]-3-phenyl-propionic acid sodium salt], for which the “change of PTP1B activity (percent of phosphatase control)” value was -20 (1 uM).

Still in this assay, the particulars now being: compound at 2.5 uM; read-out: change of PTP1B activity (percent of phosphatase control).
`O=C(O)[C@H](Cc1ccccc1)Oc1ccc(-c2ccc(-c3nc4ccccc4n3Cc3ccccc3)cc2)cc1` [Example 70, (2S)-2-[4'-(1-Benzyl-1H-benzimidazol-2-yl)-biphenyl-4-yloxy]-3-phenyl-propionic acid]: the inhibition at 2.5 µM worked out at 41%.

The same assay, now with this note: recombinant PTP1B, dodecaphosphopeptide substrate.
`O=C(O)COc1c(Br)cc(-c2ccc(-c3c(Cc4ccccc4)sc4ccccc34)cc2)cc1Br` [Example 39, [4'-(2-Benzyl-benzo[b]thiophene-3-yl)-3,5-dibromo-biphenyl-4-yloxy]acetic acid]: the IC50 is 105 nM. Take `O=C(O)COc1ccc(-c2ccc(-c3c(Cc4ccccc4)sc4ccccc34)cc2)cc1Br` [Example 40, [4'-(2-Benzyl-benzo[b]thiophene-3-yl)-3-bromo-biphenyl-4-yloxy]-acetic acid]: the 50% inhibitory concentration (IC50) is 362 nM. As for `O=C(O)[C@H](Cc1ccccc1)Oc1ccc(-c2ccc(-c3c(Cc4ccccc4)oc4ccccc34)cc2)cc1Br` [Example 50, (2S)-2-[4'-(2-benzyl-benzofuran-3-yl)-3-bromo-biphenyl-4-yloxy]-3-phenyl-propionic acid], the concentration for half-maximal inhibition (IC50) stood at 56 nM.

With `O=C(O)[C@H](Cc1ccccc1)Oc1ccc(-c2ccc(-c3c(Cc4ccccc4)oc4cccnc34)cc2)cc1` [Example 31, (2S)-2-[4'-(2-Benzyl-furo[2,3]pyridin-3-yl)-biphenyl-4-yloxy]-3-phenyl-propionic acid], the IC50 stood at 590 nM. Take `Cc1sc(Cc2ccccc2)c(-c2ccc(-c3ccc(O[C@H](Cc4ccccc4)C(=O)O)cc3)cc2)c1C` [Example 64, (2R)-2-[4'-(2-Benzyl-4,5-dimethyl-thiophen-3-yl)-biphenyl-4-yloxy]-3-phenyl-propionic acid]: the IC50 was 512 nM. The same measure, in the same setting: with `CCCCCC[C@H](Oc1c(Br)cc(-c2ccc(-c3c(Cc4ccccc4)oc4ccccc34)cc2)cc1Br)C(=O)O` [Example 54, (2S)-2-[4'-(2-benzyl-benzofuran-3-yl)-3,5-dibromo-biphenyl-4-yloxy]-octanoic acid] the figure was 23 nM; with `O=C(O)[C@H](CCc1ccccc1)Oc1ccc(-c2ccc(-c3c(Cc4ccccc4)oc4ccccc34)cc2)cc1` [Example 47, (2S)-2-[4'-(2-benzyl-benzofuran-3-yl)-biphenyl-4-yloxy]-4-phenyl-butyric acid], 225 nM; with `COc1cccc(-c2cc(-c3ccc(-c4c(Cc5ccccc5)sc5ccccc45)cc3)cc(Br)c2OCC(=O)O)c1` [Example 57], 28 nM. With `O=C(O)COc1ccc(-c2ccc(-c3c(Cc4ccccc4)sc4ccccc34)cc2)cc1-c1ccccc1` [Example 62], the IC50 came to 105 nM. `O=C(O)c1ccc(COc2ccc(-c3ccc(-c4c(Cc5ccccc5)oc5ccccc45)cc3)cc2)cc1` [Example 63, 4-[4'-(2-benzyl-benzofuran-3-yl)-biphenyl-4-yloxymethyl]-benzoic acid]: the concentration for half-maximal inhibition (IC50) came out at 369 nM. As to `COc1ccc(-c2cc(-c3ccc(-c4c(Cc5ccccc5)sc5ccccc45)cc3)ccc2OCC(=O)O)cc1` [Example 59], the IC50 is 80 nM. Turning to `O=C(O)[C@H](CCc1ccccc1)Oc1c(Br)cc(-c2ccc(-c3c(Cc4ccccc4)sc4ccccc34)cc2)cc1Br` [Example 41, (2S)-2-[4'-(2-Benzyl-benzo[b]-thiophen-3-yl)-3,5-dibromo-biphenyl-4-yloxy]-4-phenyl-butyric acid], the IC50 came out at 290 nM.

A word on the IC50: it is the concentration at which inhibition is half-maximal.

The record behind these values is EP1077967B1, “BIPHENYL OXO-ACETIC ACIDS USEFUL IN THE TREATMENT OF INSULIN RESISTANCE AND HYPERGLYCEMIA” (Wyeth, priority 1998, dated 1999).
